This note sets out measurements from patent publication US8993574B2, “Pyrrole antifungal agents” (F2G Ltd, priority 2008, dated 2015).

Holding throughout (assay type): cell-based
Experiment [1] concerns Aspergillus terreus AT4. The experiment in a line: MIC, YAG medium. The settings on record: 24 h at 35° C, MIC banded into grades; for MIC: Aspergillus terreus, read-out: MIC grade, A. terreus. The gist of the method:
(§1)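 Spores from 5-day Sabouraud agar cultures were suspended in YAG medium (1% glucose, 1% ammonium chloride, 0.5% yeast extract) at final inocula of 1−2×10^4 cfu/mL against doubling dilutions of compound (50-0.05 mg/L; 0.5-0.0005 mg/L on repeat). Plates were incubated 24 h at 35° C. MIC was the lowest concentration giving >70% growth inhibition by OD485 versus drug-free control.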

The test system of experiment [2] is Aspergillus niger. The experiment in a line: MIC, YAG medium. As to conditions: 24 h at 35° C, MIC banded into grades; for MIC: Aspergillus niger, read-out: MIC grade, A. niger. The method, boiled down: as §1
Experiment [3] has as its system Aspergillus terreus AT49. As to the kind of experiment: MIC, YAG medium. As to conditions: 24 h at 35° C, MIC banded into grades; for MIC: Aspergillus terreus, read-out: MIC grade, A. terreus 49. The method, boiled down:
as §1

The test system of experiment [4] is Aspergillus fumigatus AF293. The experiment in a line: MIC, YAG medium. As to conditions: 24 h at 35° C, MIC banded into grades; for MIC: Aspergillus fumigatus, read-out: MIC grade, A. fumigatus. The gist of the method:
as §1

Experiment [5] deals with Aspergillus flavus. As to the kind of experiment: MIC, YAG medium. As to conditions: 24 h at 35° C, MIC banded into grades; for MIC: Aspergillus flavus, 24 h, read-out: MIC grade, A. flavus. The gist of the method:
as §1

The subject of experiment [6] is Aspergillus fumigatus AF210. As to the kind of experiment: MIC, YAG medium. The settings on record: 24 h at 35° C, MIC banded into grades; for MIC: Aspergillus fumigatus, read-out: MIC grade, A. fumigatus 210. The gist of the method: as §1
Experiment [7] concerns Aspergillus terreus AT4. The experiment in a line: MIC, RPMI medium. As to conditions: for MIC: Aspergillus terreus, AT4, MIC banded into grades, read-out: MIC grade, A. terreus. The gist of the method: (§2)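 Broth microdilution in RPMI medium with 2% glucose and 0.135 M MOPS (pH 7.0); compounds as doubling dilutions over 50-0.05 mg/L, inoculum 1−2×10^4 cfu/mL. Plates incubated 24-48 h at 35° C; OD 485 nm read, MIC being lowest concentration giving >80% growth inhibition versus drug-free control.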

In experiment [8] the test system is Aspergillus niger. As to the kind of experiment: MIC, RPMI medium. As to conditions: MIC banded into grades; for MIC: Aspergillus niger, read-out: MIC grade, A. niger. The method, boiled down:
as §2

Experiment [9] concerns Aspergillus terreus AT49. The experiment in a line: MIC, RPMI medium. The settings on record: for MIC: Aspergillus terreus, AT49, MIC banded into grades, read-out: MIC grade, A. terreus 49. The method, boiled down:
as §2

The test system of experiment [10] is Aspergillus fumigatus AF293. As to the kind of experiment: MIC, RPMI medium. The settings on record: for MIC: Aspergillus fumigatus, AF293, MIC banded into grades, read-out: MIC grade, A. fumigatus. The gist of the method: as §2
Experiment [11] deals with Aspergillus flavus. The experiment in a line: MIC, RPMI medium. The settings on record: MIC banded into grades; for MIC: Aspergillus flavus, read-out: MIC grade, A. flavus. The gist of the method: as §2
In experiment [12] the test system is Aspergillus fumigatus AF210. As to the kind of experiment: MIC, RPMI medium. The settings on record: for MIC: Aspergillus fumigatus, AF210, MIC banded into grades, read-out: MIC grade, A. fumigatus 210. The method, boiled down:
as §2

Structures are written as SMILES. Converted amounts (≈) assume the structure as drawn.

Turning to `CCCn1c(C)cc(-c2ccccc2)c1C(=O)C(=O)Nc1ccc(N2CCN(c3cc(C)cc(C)n3)CC2)cc1` [Example 35, N-{4-[4-(4,6-Dimethyl-pyridin-2-yl)-piperazin-1-yl]-phenyl}-2-(5-methyl-3-phenyl-1-propyl-1H-pyrrol-2-yl)-2-oxo-acetamide], the MIC (in the experiment on Aspergillus terreus AT4 [1]; in the experiment on Aspergillus niger [2]; with Aspergillus terreus AT49 [3]; in experiment [4]; with Aspergillus flavus [5]; in [6]) was < 1 µg/mL throughout. For the same compound, the MIC (with Aspergillus terreus AT4 [7]; in the experiment on Aspergillus niger [8]; in the experiment with Aspergillus terreus AT49 [9]; in experiment [10]; in the experiment with Aspergillus flavus [11]; in experiment [12]) was < 1 µg/mL each time.
Consider `COCCn1cc(-c2cccc(Cl)c2)cc1C(=O)C(=O)Nc1ccc(N2CCN(c3cc(C)cc(C)n3)CC2)cc1` [Example 71, 2-[4-(3-Chloro-phenyl)-1-(2-methoxy-ethyl)-1H-pyrrol-2-yl]-N-{4-[4-(4,6-dimethyl-pyridin-2-yl)-piperazin-1-yl]-phenyl}-2-oxo-acetamide], for which the MIC in the experiment with Aspergillus terreus AT4 [1] was > 10 µg/mL; in the experiment with Aspergillus niger [2], > 10 µg/mL; in the experiment with Aspergillus terreus AT49 [3], 1 to 10 µg/mL (≈ 1.75 to 17.5 µM); in experiment [4], > 10 µg/mL; in the experiment on Aspergillus flavus [5], > 10 µg/mL; in [6], > 10 µg/mL. Also, the MIC (with Aspergillus terreus AT4 [7]; in the experiment with Aspergillus niger [8]; with Aspergillus terreus AT49 [9]; in [10]; in the experiment on Aspergillus flavus [11]; in experiment [12]) was > 10 µg/mL in each case.
Turning to `Cc1cc(C)nc(N2CCN(c3ccc(NC(=O)C(=O)c4c(-c5ccccc5)cc(C)n4Cc4cccnc4)cc3)CC2)c1` [Example 93, N-{4-[4-(4,6-Dimethyl-pyridin-2-yl)-piperazin-1-yl]-phenyl}-2-(5-methyl-3-phenyl-1-pyridin-3-ylmethyl-1H-pyrrol-2-yl)-2-oxo-acetamide], the MIC was 1 to 10 µg/mL (≈ 1.71 to 17.1 µM) in the experiment on Aspergillus terreus AT4 [1]; < 1 µg/mL with Aspergillus niger [2]; 1 to 10 µg/mL (≈ 1.71 to 17.1 µM) with Aspergillus terreus AT49 [3]; < 1 µg/mL in experiment [4]; 1 to 10 µg/mL (≈ 1.71 to 17.1 µM) with Aspergillus flavus [5]; < 1 µg/mL in experiment [6]. The MIC is > 10 µg/mL in the experiment on Aspergillus terreus AT4 [7]; 1 to 10 µg/mL (≈ 1.71 to 17.1 µM) with Aspergillus niger [8]; > 10 µg/mL in the experiment with Aspergillus terreus AT49 [9]; 1 to 10 µg/mL (≈ 1.71 to 17.1 µM) in experiment [10]; > 10 µg/mL with Aspergillus flavus [11]; 1 to 10 µg/mL (≈ 1.71 to 17.1 µM) in [12].
As to `Cc1cc(-c2ccccc2)c(C(=O)C(=O)Nc2ccc(N3CCN(C(=O)C(C)C)CC3)cc2)n1C` [Example 145, 2-(1,5-Dimethyl-3-phenyl-1H-pyrrol-2-yl)-N-[4-(4-isobutyryl-piperazin-1-yl)-phenyl]-2-oxo-acetamide], the MIC (in the experiment with Aspergillus terreus AT4 [1]; with Aspergillus niger [2]; with Aspergillus terreus AT49 [3]; in [4]; in the experiment with Aspergillus flavus [5]; in experiment [6]) was < 1 µg/mL throughout. Further, the MIC in the experiment with Aspergillus terreus AT4 [7] was < 1 µg/mL; in the experiment on Aspergillus niger [8], 1 to 10 µg/mL (≈ 2.12 to 21.2 µM); in the experiment on Aspergillus terreus AT49 [9] it was < 1 µg/mL; in [10] it was < 1 µg/mL; with Aspergillus flavus [11], < 1 µg/mL; in experiment [12] it was < 1 µg/mL.
In the case of `CCc1cc(-c2ccccc2)c(C(=O)C(=O)Nc2ccc(N3CCN(c4cc(C)cc(C)n4)CC3)cc2)n1CCOC` [Example 54, N-{4-[4-(4,6-Dimethyl-pyridin-2-yl)-piperazin-1-yl]-phenyl}-2-[5-ethyl-1-(2-methoxy-ethyl)-3-phenyl-1H-pyrrol-2-yl]-2-oxo-acetamide], the MIC was 1 to 10 µg/mL (≈ 1.77 to 17.7 µM) in the experiment with Aspergillus terreus AT4 [1]; 1 to 10 µg/mL (≈ 1.77 to 17.7 µM) in the experiment with Aspergillus niger [2]; < 1 µg/mL in the experiment on Aspergillus terreus AT49 [3]; < 1 µg/mL in [4]; 1 to 10 µg/mL (≈ 1.77 to 17.7 µM) with Aspergillus flavus [5]; < 1 µg/mL in experiment [6]. In addition, the MIC with Aspergillus terreus AT4 [7] is > 10 µg/mL; in the experiment on Aspergillus niger [8] it was 1 to 10 µg/mL (≈ 1.77 to 17.7 µM); with Aspergillus terreus AT49 [9] it was > 10 µg/mL; in experiment [10] it was < 1 µg/mL; in the experiment on Aspergillus flavus [11], > 10 µg/mL; in experiment [12] it was 1 to 10 µg/mL (≈ 1.77 to 17.7 µM).
As for `COC(=O)Cn1c(C)cc(-c2ccccc2)c1C(=O)C(=O)Nc1ccc(N2CCN(c3cc(C)cc(C)n3)CC2)cc1Cl` [Example 98, (2-{2-Chloro-4-[4-(4,6-dimethyl-pyridin-2-yl)-piperazin-1-yl]-phenylaminooxalyl}-5-methyl-3-phenyl-pyrrol-1-yl)-acetic acid methyl ester], the “MIC grade, A. terreus” value against Aspergillus terreus AT4 [1] and with Aspergillus terreus AT4 [7] (MIC banded into grades) was 3 (A grade of 3 represents an MIC of less than 1 mg/L) throughout. The “MIC grade, A. niger” value with Aspergillus niger [2] and with Aspergillus niger [8] was 3 (A grade of 3 represents an MIC of less than 1 mg/L) in each case. The “MIC grade, A. terreus 49” value against Aspergillus terreus AT49 [3] and against Aspergillus terreus AT49 [9] (MIC banded into grades) was 3 (A grade of 3 represents an MIC of less than 1 mg/L) in each case. Further, the “MIC grade, A. fumigatus” value in [4] and in experiment [10] (MIC banded into grades) was 3 (A grade of 3 represents an MIC of less than 1 mg/L) each time. Also, the “MIC grade, A. flavus” value is given as 1 (a grade of 1 represents an MIC of greater than 10 mg/L) in the experiment with Aspergillus flavus [5] and 2 (A grade of 2 represents an MIC of from 1 to 10 mg/L) in the experiment on Aspergillus flavus [11]. In addition, the “MIC grade, A. fumigatus 210” value in experiment [6] and in experiment [12] (MIC banded into grades) was 3 (A grade of 3 represents an MIC of less than 1 mg/L) throughout.
Take `COCC(C)N1CCN(c2ccc(NC(=O)C(=O)c3c(-c4ccccc4)cc(C)n3C)cc2)CC1` (stereo not drawn) [Example 151, 2-(1,5-Dimethyl-3-phenyl-1H-pyrrol-2-yl)-N-{4-[4-(2-methoxy-1-methyl-ethyl)-piperazin-1-yl]-phenyl}-2-oxo-acetamide]: the MIC (with Aspergillus terreus AT4 [1]; in the experiment on Aspergillus niger [2]; in the experiment with Aspergillus terreus AT49 [3]; in experiment [4]; in the experiment with Aspergillus flavus [5]; in experiment [6]) was < 1 µg/mL each time. Further, the MIC (in the experiment on Aspergillus terreus AT4 [7]; with Aspergillus niger [8]; in the experiment with Aspergillus terreus AT49 [9]; in experiment [10]; with Aspergillus flavus [11]; in [12]) was < 1 µg/mL in each case.
As for `Cc1cc(-c2ccccc2)c(C(=O)C(=O)Nc2ccc(N3CCCCC3)cc2F)n1C` [Example 106, 2-(1,5-Dimethyl-3-phenyl-1H-pyrrol-2-yl)-N-(2-fluoro-4-piperidin-1-yl-phenyl)-2-oxo-acetamide], the MIC (in the experiment on Aspergillus terreus AT4 [1]; in the experiment with Aspergillus niger [2]; in the experiment on Aspergillus terreus AT49 [3]; in experiment [4]; in the experiment on Aspergillus flavus [5]; in experiment [6]) was < 1 µg/mL throughout. Besides, the MIC (in the experiment on Aspergillus terreus AT4 [7]; with Aspergillus niger [8]; in the experiment on Aspergillus terreus AT49 [9]; in experiment [10]; with Aspergillus flavus [11]; in experiment [12]) was < 1 µg/mL throughout.
Regarding `COCCn1c(C)cc(-c2ccccc2)c1C(=O)C(=O)Nc1ccc(N2CCN(c3ccccn3)CC2)cc1F` [Example 96, N-[2-Fluoro-4-(4-pyridin-2-yl-piperazin-1-yl)-phenyl]-2-[1-(2-methoxy-ethyl)-5-methyl-3-phenyl-1H-pyrrol-2-yl]-2-oxo-acetamide], the MIC (with Aspergillus terreus AT4 [1]; with Aspergillus niger [2]; with Aspergillus terreus AT49 [3]; in experiment [4]; in the experiment with Aspergillus flavus [5]; in experiment [6]) was < 1 µg/mL each time. Besides, the MIC is < 1 µg/mL with Aspergillus terreus AT4 [7]; < 1 µg/mL in the experiment with Aspergillus niger [8]; 1 to 10 µg/mL (≈ 1.85 to 18.5 µM) in the experiment on Aspergillus terreus AT49 [9]; < 1 µg/mL in [10]; 1 to 10 µg/mL (≈ 1.85 to 18.5 µM) with Aspergillus flavus [11]; < 1 µg/mL in experiment [12].
Regarding `Cc1ccnc(N2CCN(c3ccc(NC(=O)C(=O)c4c(-c5ccccc5)cc(C)n4C)cc3)CC2)c1` [Example 40, 2-(1,5-Dimethyl-3-phenyl-1H-pyrrol-2-yl)-N-{4-[4-(4-methyl-pyridin-2-yl)-piperazin-1-yl]-phenyl}-2-oxo-acetamide], the MIC (with Aspergillus terreus AT4 [1]; in the experiment with Aspergillus niger [2]; with Aspergillus terreus AT49 [3]; in [4]; in the experiment with Aspergillus flavus [5]; in [6]) was < 1 µg/mL in each case. The MIC (in the experiment with Aspergillus terreus AT4 [7]; with Aspergillus niger [8]; with Aspergillus terreus AT49 [9]; in [10]; with Aspergillus flavus [11]; in experiment [12]) was < 1 µg/mL each time.

The term MIC denotes the lowest concentration that inhibits growth of the organism.
